Experimental data: article PMC5989765, “The safety, tolerability, and pharmacokinetic profile of GSK2838232, a novel 2nd generation HIV maturation inhibitor, as assessed in healthy subjects” (Pharmacology Research & Perspectives, 2018)
Entries after “also recorded” stand apart in the source; their conditions may differ. Where two headings read alike, the source gives them in different places.

Columns and labels:
[1] = Study 200912: single dose 100-200 mg, SDD versus nonmicronized API PiB, healthy subjects; format: in vivo, human; settings: for Cmax / AUC / half-life / Tmax / concentration at 24 h: human, plasma, oral; for Cmax / AUC / half-life / Tmax / concentration at 24 h / CL/F: fasted; for Cmax / AUC / half-life / CL/F: geometric mean (95% CI); for AUC: read-out: AUC(0‐∞); for half-life: read-out: t½ (converted); for Tmax / concentration at 24 h: median (range); for concentration at 24 h: read-out: C24
Excerpt: This was a double‐blind, randomized, placebo‐controlled, single‐dose escalation study to investigate the safety, tolerability, and PK of higher single doses of GSK2838232 (Part A) and to evaluate the relative bioavailability of the SDD and crystalline Active Pharmaceutical Ingredient (API) of GSK2838232 (Part B) in healthy subjects dosed as PiB.
Part A was originally planned as a double‐blind, randomized, placebo‐controlled, 4‐period, single‐dose escalation design. Subjects were randomized 3:1 to receive GSK2838232 or placebo. Periods 1 and 2 investigated dosing with 200 mg SDD or nonmicronized API. Further planned dosing of RTV‐boosted single doses of 20 mg and 50 mg SDD was not performed due to early termination of the study to evaluate a serious adverse event (SAE) of a cardiovascular nature (see Safety discussion).
Part B was conducted in a separate group of subjects and was not dependent on the results of Part A. This was a randomized, open‐label, 3‐period, crossover design to assess the relative bioavailability of the nonmicronized API PiB versus the original SDD formulation at a 100 mg dose level (Periods 1 and 2). […] Subjects were randomized 1:1 to each dosing sequence.
(§1) Blood samples were taken via an indwelling cannula or by direct venipuncture, collected into a di‐potassium ethylenediaminetetraacetic acid (K2 EDTA) tube, and placed on wet ice. Samples were centrifuged at approximately 1500g for 10 minutes at approximately 4°C. Exactly 500 μL of the resulting plasma was transferred into labeled 1.4 mL Matrix TrakMate Tubes containing exactly 500 μL of 50 mmol/L citrate buffer, pH 4.0, and mixed well. When 500 μL of plasma was not able to be transferred, the ratio of plasma to citrate buffer was kept at 1:1. Buffered plasma samples were kept on ice and frozen at −70°C within 1 hour of collection. Plasma samples were analyzed for GSK2838232 using a validated analytical method based on protein precipitation, followed by high performance liquid chromatography with tandem mass spectrometry (HPLC/MS/MS) analysis.
(§2) Extracts were analyzed using HPLC (Shimadzu, Nexera, 30 series) and tandem mass spectrometry detection (HPLC‐MS/MS). The mass spectrometer used was an API‐5500 using IonSpray interface (500 V) in positive mode monitoring. The mass transitions were 809.5 to 255.1 and 816.5 to 262.1 for GSK2838232 and [2H7] GSK2838232 (the isotopically labeled internal standard), respectively. The chromatographic conditions utilized a Waters Acquity UPLC BEH C18 column (50 × 2.1 mm, 1.7 μm) with mobile phases consisting of 1 mmol/L ammonium formate:formic acid (100:0.005) (mobile phase A) and acetonitrile:formic acid (100:0.1) (mobile phase B) at a flow rate of 0.6 mL/min, with pump B at 63% held for 2 minutes. The assay was validated to have precision (%RSD) of 0.7%‐6.5% (within‐run) and 1.0%‐5.9% RSD (between‐run) and with accuracy (%bias) of 0.0%‐1.6%. […] The lower limit of quantification (LLQ) was 0.5 ng/mL, using a 50 μL aliquot of K2EDTA acidified plasma. The higher limit of quantification (HLQ) was 500 ng/mL.
(§3) The PK parameters were calculated by standard noncompartmental analysis based on actual sampling times using WinNonlin Version 6.3 or higher. Estimation of AUC used the linear up/log down trapezoidal rule.

[2] = Study 200207: repeat dose 20-50 mg QD for 8 days, SDD, healthy subjects; format: in vivo, human
Method: This study was conducted in parallel with Study 200912 and was planned as a two‐part, double‐blind, placebo‐controlled, repeat dose escalation study of GSK2838232 with and without RTV for 8‐11 days. Subjects were randomized 3:1 to receive GSK2838232 or placebo. Part A was designed to evaluate GSK2838232 given alone for 8 days (20 mg and 50 mg GSK2838232 once‐daily (QD) for 8 days, respectively) and Part B was designed to evaluate GSK2838232 when co‐administered with 100 mg RTV QD for 11 days. Because of the occurrence of an SAE that was eventually determined to be unlikely to be related to GSK2838232 (see Safety discussion), the study was terminated early after one cohort in Part B (10 mg GSK2838232 + 100 mg RTV QD) had completed only 5 days of the planned 11‐day regimen.
as §1, §2, §3

[3] = Safety and tolerability in healthy subjects across the four Phase I studies; format: in vivo, human
Method: Each one of the four studies described were conducted and completed at a single center in the United States (Parexel International, Baltimore, MD) per the ethical principles of “good clinical practice” (GCP) and the Declaration of Helsinki after obtaining a written informed consent from each subject. The protocols and amendments were approved by Aspire Investigational Review Board (Santee, California, USA).
Other screening assessments included 24‐hour Holter monitoring and baseline echocardiograms.
Nonclinical evaluation in short duration toxicology studies initially gave rise to potential cardiovascular signals which were minimal, appeared sporadically, and were not reproduced in longer term studies. Consequently, there was intensive and extensive cardiovascular monitoring at baseline and post‐dosing, including continuous Holter monitoring and regular cardiac troponin laboratory assessments in these early Phase I studies along with a high degree of vigilance for any findings and/or reported AEs of potential cardiovascular origin.

[4] = preclinical; cited from earlier work
[5] = 20 mg, single 20 mg API PiB, with ritonavir (predosing 10 days), Study 200912
[6] = 100 mg, single 100 mg API PiB, without ritonavir, Study 200912
[7] = 100 mg, single 100 mg SDD PiB, without ritonavir, Study 200912
[8] = 200 mg, single 200 mg API PiB, without ritonavir, Study 200912
[9] = 200 mg, single 200 mg SDD PiB, without ritonavir, Study 200912
[10] = repeated daily dosing with 50 mg, unboosted

For `CC(C)C1=C2[C@H]3CC[C@@H]4[C@@]5(C)CC[C@H](OC(=O)CC(C)(C)C(=O)O)C(C)(C)[C@@H]5CC[C@@]4(C)[C@]3(C)CC[C@@]2([C@@H](O)CN(CCN(C)C)Cc2ccc(Cl)cc2)CC1=O` [GSK2838232], which “dose proportionality of exposure” value ([1]; API, 100 mg to 200 mg single doses, Study 200912) is on record?
The value was “proportional increase in exposure”.

And the Cmax [1, 5]?
Its Cmax is 4.89 ng/mL.

What about the AUC [1, 5] of the same compound?
The AUC was 224 ng·h/mL.

What about the half-life [1, 5] of the same compound?
The half-life was 41.1 h.

And the Tmax [1, 5]?
Its Tmax is 5.01 h.

What about the concentration at 24 h [1, 5] of the same compound?
The concentration at 24 h was 2.56 ng/mL.

What about the Cmax [1, 6] of the same compound?
Its Cmax is 6.15 ng/mL.

And the AUC [1, 6]?
Its AUC is 91.7 ng·h/mL.

And the half-life [1, 6]?
Its half-life is 12.5 h.

And the Tmax [1, 6]?
Its Tmax is 3.64 h.

What about the concentration at 24 h [1, 6] of the same compound?
The concentration at 24 h was 2.02 ng/mL.

What about the Cmax [1, 7] of the same compound?
The Cmax was 18.7 ng/mL.

What about the AUC [1, 7] of the same compound?
The AUC was 265 ng·h/mL.

What about the half-life [1, 7] of the same compound?
The half-life was 16.9 h.

What about the Tmax [1, 7] of the same compound?
The Tmax was 2.75 h.

What about the concentration at 24 h [1, 7] of the same compound?
Its concentration at 24 h is 3.87 ng/mL.

What about the Cmax [1, 8] of the same compound?
The Cmax was 13.6 ng/mL.

What about the AUC [1, 8] of the same compound?
Its AUC is 189 ng·h/mL.

And the half-life [1, 8]?
The half-life was 15.9 h.

What about the Tmax [1, 8] of the same compound?
Its Tmax is 2.76 h.

What about the concentration at 24 h [1, 8] of the same compound?
The concentration at 24 h was 2.85 ng/mL.

And the Cmax [1, 9]?
The Cmax was 29.3 ng/mL.

What about the AUC [1, 9] of the same compound?
The AUC was 381 ng·h/mL.

What about the half-life [1, 9] of the same compound?
The half-life was 16.6 h.

What about the Tmax [1, 9] of the same compound?
The Tmax was 1.75 h.

What about the concentration at 24 h [1, 9] of the same compound?
Its concentration at 24 h is 5.18 ng/mL.

What about the CL/F ([1]; single 20 mg API PiB, with ritonavir (predosing 10 days), Study 200912) of the same compound?
The CL/F was 89.2 (63.3, 126) L/h.

And the CL/F ([1]; single 100 mg API PiB, without ritonavir, Study 200912)?
The CL/F was 1090 (670, 1774) L/h.

What about the CL/F ([1]; single 100 mg SDD PiB, without ritonavir, Study 200912) of the same compound?
Its CL/F is 378 (256, 559) L/h.

And the CL/F ([1]; single 200 mg API PiB, without ritonavir, Study 200912)?
The CL/F was 1060 (686, 1638) L/h.

What about the CL/F ([1]; single 200 mg SDD PiB, without ritonavir, Study 200912) of the same compound?
The CL/F was 525 (399, 690) L/h.

What about the “dose proportionality of exposure” value ([1]; single doses 100 mg to 200 mg, SDD formulation, without RTV) of the same compound?
Its value is “less‐than‐proportional increase”.

What about the “relatedness of the two cardiovascular events” value ([2]; Study 200207, after expert evaluation) of the same compound?
The value was “the likelihood of a relationship was very low”.

And the “cardiovascular finding: arrhythmia” value ([2]; Study 200207, one subject, 39 hours after last of eight daily 50 mg doses)?
Its value is “a nonsustained ventricular tachycardia (NSVT) that was associated with dyspnea in another”.

What about the “cardiovascular finding: troponin” value ([2]; Study 200207, one subject, second day of dosing with 20 mg) of the same compound?
Its value is “a mild troponin elevation in one subject”.

What about the concentration at 39 hours ([2]; human, plasma, oral, one subject, 39 hours after the last of eight daily 50 mg doses, read-out: plasma concentration at the time of the NSVT event) of the same compound?
Its concentration at 39 hours is less than 1 ng/mL.

What about the half-life ([2]; human, plasma, oral, without boosting, repeat dosing, read-out: t½ (converted)) of the same compound?
The half-life was roughly 15 h.

And the “accumulation ratio based on AUC” value [2, 10]?
The value was 1.2.

And the “accumulation ratio based on C max” value [2, 10]?
Its value is 1.1.

And the “accumulation ratio based on Cτ” value [2, 10]?
The value was 1.4.

And the “time to steady state” value ([2]; unboosted)?
Its value is 3 days.

And the “dose proportionality of AUC and C max” value ([2]; unboosted, 20 mg and 50 mg QD for 8 days)?
Its value is “slightly less than dose‐proportional”.

What about the “increase in AUC and C max after a 2.5‐fold dose” value ([2]; unboosted, 20 mg to 50 mg QD for 8 days) of the same compound?
The value was “approximately 2 fold”.

What about the “cardiovascular toxicities / events related to study drug” value ([3]; healthy subjects) of the same compound?
Its value is “no cardiovascular toxicities were deemed related to study drug administration; also recorded: none were considered definitively related to GSK2838232”.

What about the adverse events ([3]; healthy subjects, all dose regimens, up to 250 mg) of the same compound?
The adverse events was “few mild adverse events (AEs) with similar frequencies to placebo; also recorded: Few adverse events (AEs) were reported across all dose regimens”.

What about the “drug‐related AEs” value ([3]; healthy subjects, four studies) of the same compound?
The value was “no clearly identified drug‐related AEs”.

What about the “changes in hematology or clinical chemistry laboratory values, including liver function tests” value ([3]; healthy subjects, exception one subject with gallstones (not treatment‐related)) of the same compound?
The value was “no clinically significant changes”.

What about the “AEs assessed with a reasonable likelihood of being drug‐related” value ([3]; infrequently reported) of the same compound?
Its value is “headache and dizziness”.

And the safety and tolerability ([3]; single doses up to 250 mg with 100 mg RTV, repeat doses up to 200 mg with 100 mg RTV for 11 days)?
Its safety and tolerability is “good safety and tolerability profile”.

And the metabolism pathways [4]?
Its metabolism pathways is “Phase I oxidation (primarily by cytochrome P450 [CYP] 3A4) and Phase II glucuronidation”.

And the “urinary excretion of drug‐related material” value [4]?
The value was no more than 1 % administered dose.
